The results in this text go back to ChEMBL document CHEMBL3526033, “Identification of human liver cytochrome P450 enzymes involved in the metabolism of SCH 530348 (Vorapaxar), a potent oral thrombin protease-activated receptor 1 antagonist” (Drug Metab Dispos, 2011).

By Vmax is commonly meant the top rate of the reaction or transport when substrate is in excess.

Series [1] addresses CYP2C19 (Homo sapiens, UniProt P33261). Nature of the series: Activity of human recombinant CYP2C19 assessed as enzyme-mediated drug metabolism at 10 uM after 120 mins by LC-MS/MS analysis in presence of NADPH. Type of series: ADME. Particulars: read-out: Compound recovery.
Series [2] concerns the target Cytochrome P450 3A4 (Homo sapiens, UniProt P08684). Nature of the series: Drug metabolism assessed as human recombinant CYP3A4-mediated 2-hydroxyethyl (1R,3aR,4aR,6R,8aR,9S,9aS)-9-((E)-2-(5-(3-fluorophenyl)pyridin-2-yl)vinyl)-1-methyl-3-oxododecahydronaphtho[2,3-c]furan-6-ylcarbamate formation at 25 uM after 120 mins by LC-MS/MS analysis in presence of ketoconazole. Type of series: ADME. Particulars: recombinant enzyme, 2 h.

Series [3] deals with Liver microsome. Nature of the series: Drug metabolism in human liver microsomes assessed as 2-hydroxyethyl (1R,3aR,4aR,6R,8aR,9S,9aS)-9-((E)-2-(5-(3-fluorophenyl)pyridin-2-yl)vinyl)-1-methyl-3-oxododecahydronaphtho[2,3-c]furan-6-ylcarbamate formation at 25 uM after 120 mins by LC-MS/MS analysis in presence of NADPH. Format: ADME. Particulars: 2 h.
For series [4], the system named is Liver microsome. Nature of the series: Drug metabolism in human liver microsomes assessed as (3R,3aS,4S,4aR,7R,8aR,9aR)-7-amino-4-((E)-2-(5-(3-fluorophenyl)pyridin-2-yl)vinyl)-3-methyldecahydronaphtho[2,3-c]furan-1(3H)-one formation at 10 to 25 uM after 120 mins by LC-MS/MS analysis in presence of alpha-napthoflavone. Type of series: ADME. Particulars: 2 h. (Microsomes from liver hold many membrane-bound enzymes, among them those of drug oxidation.)

Series [5] has as its system Liver microsome. Nature of the series: Drug metabolism in human liver microsomes assessed as 2-hydroxyethyl (1R,3aR,4aR,6R,8aR,9S,9aS)-9-((E)-2-(5-(3-fluorophenyl)pyridin-2-yl)vinyl)-1-methyl-3-oxododecahydronaphtho[2,3-c]furan-6-ylcarbamate formation at 25 uM after 120 mins by LC-MS/MS analysis. Type of series: ADME. Particulars: 2 h.
The test system of series [6] is Liver microsome. The experiment in a line: Drug metabolism in human liver microsomes assessed as 2-hydroxyethyl (1R,3aR,4aR,6R,8aR,9S,9aS)-9-((E)-2-(5-(3-fluorophenyl)pyridin-2-yl)vinyl)-1-methyl-3-oxododecahydronaphtho[2,3-c]furan-6-ylcarbamate formation at 25 uM after 120 mins by LC-MS/MS analysis in presence of CYP3A4-specific inhibitory monoclonal antibody. Format: ADME. Particulars: 2 h.

The target in series [7] is CYP1A2 (Homo sapiens, UniProt P05177). The experiment in a line: Activity of human recombinant CYP1A2 assessed as enzyme-mediated drug metabolism at 10 uM after 120 mins by LC-MS/MS analysis in presence of NADPH. Format: ADME. Particulars: read-out: Compound recovery.
The target in series [8] is CYP2C9 (Homo sapiens, UniProt P11712). The experiment in a line: Activity of human recombinant CYP2C9 assessed as enzyme-mediated drug metabolism at 10 uM after 120 mins by LC-MS/MS analysis in presence of NADPH. Format: ADME. Particulars: read-out: Compound recovery.
For series [9], the target named is T1, Cytochrome P450 2J2 (Homo sapiens, UniProt P51589).
T1 sequence (P51589 whole entry): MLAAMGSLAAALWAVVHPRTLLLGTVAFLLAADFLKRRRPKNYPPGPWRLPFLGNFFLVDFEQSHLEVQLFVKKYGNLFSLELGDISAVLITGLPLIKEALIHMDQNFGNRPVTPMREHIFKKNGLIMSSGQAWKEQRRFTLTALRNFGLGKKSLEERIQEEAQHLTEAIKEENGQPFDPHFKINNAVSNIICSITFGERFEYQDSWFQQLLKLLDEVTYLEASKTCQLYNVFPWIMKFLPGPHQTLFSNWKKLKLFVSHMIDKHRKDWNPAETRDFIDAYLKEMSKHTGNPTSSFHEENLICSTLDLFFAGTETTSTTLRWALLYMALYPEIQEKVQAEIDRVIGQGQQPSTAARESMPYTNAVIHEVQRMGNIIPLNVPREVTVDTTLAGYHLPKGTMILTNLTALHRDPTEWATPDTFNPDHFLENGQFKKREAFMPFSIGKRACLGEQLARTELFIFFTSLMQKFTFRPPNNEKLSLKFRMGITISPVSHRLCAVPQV
The experiment in a line: Drug metabolism in human liver microsomes assessed as CYP2J2-mediated (3R,3aS,4S,4aR,7R,8aR,9aR)-7-amino-4-((E)-2-(5-(3-fluorophenyl)pyridin-2-yl)vinyl)-3-methyldecahydronaphtho[2,3-c]furan-1(3H)-one formation at 25 uM after 120 mins by LC-MS/MS analysis. Type of series: ADME. Particulars: 2 h.

Series [10] is described as follows: Drug metabolism in human liver S9 fraction assessed as (3R,3aS,4S,4aR,7R,8aR,9aR)-7-amino-4-((E)-2-(5-(3-fluorophenyl)pyridin-2-yl)vinyl)-3-methyldecahydronaphtho[2,3-c]furan-1(3H)-one formation at 10 uM after 120 mins by LC-MS/MS analysis. Type of series: ADME, subcellular. Particulars: s9, 2 h.
The target of series [11] is T2, Cytochrome P450 1A1 (Homo sapiens, UniProt P04798).
T2 sequence (P04798 whole entry): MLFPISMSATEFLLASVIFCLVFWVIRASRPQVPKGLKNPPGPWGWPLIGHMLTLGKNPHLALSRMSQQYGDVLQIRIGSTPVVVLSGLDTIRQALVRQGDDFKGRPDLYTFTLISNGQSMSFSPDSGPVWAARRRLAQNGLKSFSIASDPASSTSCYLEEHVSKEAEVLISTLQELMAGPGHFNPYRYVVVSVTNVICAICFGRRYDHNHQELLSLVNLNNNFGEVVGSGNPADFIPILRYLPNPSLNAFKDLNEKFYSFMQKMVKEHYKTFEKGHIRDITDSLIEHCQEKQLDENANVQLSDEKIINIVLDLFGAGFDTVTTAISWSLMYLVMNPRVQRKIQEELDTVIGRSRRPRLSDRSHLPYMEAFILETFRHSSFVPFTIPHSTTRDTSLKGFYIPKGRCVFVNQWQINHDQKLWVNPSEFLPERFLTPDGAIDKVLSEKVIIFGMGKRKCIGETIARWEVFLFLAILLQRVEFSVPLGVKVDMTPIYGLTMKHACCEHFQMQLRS
Nature of the series: Activity of human recombinant CYP1A1 assessed as enzyme-mediated drug metabolism at 10 uM after 120 mins by LC-MS/MS analysis. Type of series: ADME. Particulars: 2 h.

In series [12] the target is Cytochrome P450 3A5 (Homo sapiens, UniProt P20815). Nature of the series: Activity of human recombinant CYP3A5 assessed as enzyme-mediated (3R,3aS,4S,4aR,7R,8aR,9aR)-7-amino-4-((E)-2-(5-(3-fluorophenyl)pyridin-2-yl)vinyl)-3-methyldecahydronaphtho[2,3-c]furan-1(3H)-one formation at 25 uM after 120 mins by LC-MS/MS analysis in presence of NADPH. Type of series: ADME. Particulars: 2 h.

Series [13] has as its target Cytochrome P450 2C18 (Homo sapiens, UniProt P33260). Nature of the series: Activity of human recombinant CYP2C18 assessed as enzyme-mediated 2-hydroxyethyl (1R,3aR,4aR,6R,8aR,9S,9aS)-9-((E)-2-(5-(3-fluorophenyl)pyridin-2-yl)vinyl)-1-methyl-3-oxododecahydronaphtho[2,3-c]furan-6-ylcarbamate formation at 25 uM after 120 mins by LC-MS/MS analysis in presence of NADPH. Type of series: ADME. Particulars: 2 h.

Sequence of CYP1A2 (P05177 whole entry): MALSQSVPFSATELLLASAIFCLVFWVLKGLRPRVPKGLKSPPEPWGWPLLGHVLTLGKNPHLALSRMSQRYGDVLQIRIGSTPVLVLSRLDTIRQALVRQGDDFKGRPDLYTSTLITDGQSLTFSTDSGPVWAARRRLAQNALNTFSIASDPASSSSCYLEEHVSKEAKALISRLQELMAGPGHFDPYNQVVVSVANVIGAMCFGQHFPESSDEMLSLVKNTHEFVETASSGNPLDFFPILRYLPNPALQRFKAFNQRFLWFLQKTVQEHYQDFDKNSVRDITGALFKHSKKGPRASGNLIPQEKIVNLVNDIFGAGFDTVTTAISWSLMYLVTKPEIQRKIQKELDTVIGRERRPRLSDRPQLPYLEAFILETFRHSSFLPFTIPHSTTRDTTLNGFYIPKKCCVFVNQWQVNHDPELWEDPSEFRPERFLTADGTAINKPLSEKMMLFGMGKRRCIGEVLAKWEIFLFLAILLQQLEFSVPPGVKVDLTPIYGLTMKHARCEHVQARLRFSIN
Sequence of Cytochrome P450 3A4 (P08684 whole entry): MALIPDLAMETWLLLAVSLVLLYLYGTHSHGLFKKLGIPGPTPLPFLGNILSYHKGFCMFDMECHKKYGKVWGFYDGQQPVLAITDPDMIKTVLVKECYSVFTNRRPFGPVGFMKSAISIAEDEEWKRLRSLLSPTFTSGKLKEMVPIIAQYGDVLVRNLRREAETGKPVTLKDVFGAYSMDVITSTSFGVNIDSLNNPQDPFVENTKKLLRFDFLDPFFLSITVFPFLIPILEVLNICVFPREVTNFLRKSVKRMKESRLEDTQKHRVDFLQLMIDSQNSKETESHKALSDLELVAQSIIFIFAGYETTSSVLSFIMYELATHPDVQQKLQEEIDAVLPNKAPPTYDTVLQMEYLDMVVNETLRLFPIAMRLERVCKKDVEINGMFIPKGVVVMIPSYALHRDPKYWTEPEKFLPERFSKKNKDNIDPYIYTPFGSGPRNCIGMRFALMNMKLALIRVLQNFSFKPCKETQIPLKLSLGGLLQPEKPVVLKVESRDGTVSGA
Sequence of Cytochrome P450 2C18 (P33260 whole entry): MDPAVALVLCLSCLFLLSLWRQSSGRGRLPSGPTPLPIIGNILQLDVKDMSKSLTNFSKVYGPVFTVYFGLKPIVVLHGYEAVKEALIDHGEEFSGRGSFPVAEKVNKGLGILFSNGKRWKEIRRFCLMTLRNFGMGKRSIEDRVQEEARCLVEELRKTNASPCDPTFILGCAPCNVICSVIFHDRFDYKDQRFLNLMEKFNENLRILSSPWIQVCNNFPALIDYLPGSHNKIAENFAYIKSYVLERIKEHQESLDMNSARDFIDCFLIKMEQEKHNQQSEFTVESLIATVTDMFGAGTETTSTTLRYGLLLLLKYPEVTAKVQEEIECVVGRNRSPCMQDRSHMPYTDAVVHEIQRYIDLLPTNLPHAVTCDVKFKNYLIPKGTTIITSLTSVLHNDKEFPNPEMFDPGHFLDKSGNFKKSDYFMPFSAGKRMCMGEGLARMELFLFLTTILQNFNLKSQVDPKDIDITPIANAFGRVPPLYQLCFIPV
Sequence of CYP2C19 (P33261 whole entry): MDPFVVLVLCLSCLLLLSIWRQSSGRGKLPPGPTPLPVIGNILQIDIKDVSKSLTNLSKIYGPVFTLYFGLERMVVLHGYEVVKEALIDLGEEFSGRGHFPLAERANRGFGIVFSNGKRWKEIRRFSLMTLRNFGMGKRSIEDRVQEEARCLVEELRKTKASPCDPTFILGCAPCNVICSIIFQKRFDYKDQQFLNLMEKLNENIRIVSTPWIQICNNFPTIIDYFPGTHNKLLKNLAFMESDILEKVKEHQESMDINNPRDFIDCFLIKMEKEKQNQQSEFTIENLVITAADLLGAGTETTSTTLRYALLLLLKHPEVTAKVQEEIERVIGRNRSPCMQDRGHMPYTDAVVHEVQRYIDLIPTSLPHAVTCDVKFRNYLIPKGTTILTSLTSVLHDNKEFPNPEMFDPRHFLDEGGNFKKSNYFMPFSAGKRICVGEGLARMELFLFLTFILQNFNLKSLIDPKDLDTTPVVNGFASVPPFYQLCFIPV
Sequence of CYP2C9 (P11712 whole entry): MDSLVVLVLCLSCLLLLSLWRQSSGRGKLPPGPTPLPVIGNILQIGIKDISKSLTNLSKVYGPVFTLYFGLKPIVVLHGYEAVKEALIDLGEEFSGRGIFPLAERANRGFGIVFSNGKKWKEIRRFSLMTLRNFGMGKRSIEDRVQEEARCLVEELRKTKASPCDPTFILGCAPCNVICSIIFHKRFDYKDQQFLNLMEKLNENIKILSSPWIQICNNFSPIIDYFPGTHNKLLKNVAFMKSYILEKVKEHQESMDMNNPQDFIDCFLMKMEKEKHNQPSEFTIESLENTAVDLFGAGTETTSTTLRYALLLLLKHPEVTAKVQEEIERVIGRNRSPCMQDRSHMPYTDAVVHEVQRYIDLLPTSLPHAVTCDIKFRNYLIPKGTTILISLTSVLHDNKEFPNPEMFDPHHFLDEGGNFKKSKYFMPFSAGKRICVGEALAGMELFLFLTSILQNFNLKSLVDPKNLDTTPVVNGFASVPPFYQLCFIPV
Sequence of Cytochrome P450 3A5 (P20815 whole entry): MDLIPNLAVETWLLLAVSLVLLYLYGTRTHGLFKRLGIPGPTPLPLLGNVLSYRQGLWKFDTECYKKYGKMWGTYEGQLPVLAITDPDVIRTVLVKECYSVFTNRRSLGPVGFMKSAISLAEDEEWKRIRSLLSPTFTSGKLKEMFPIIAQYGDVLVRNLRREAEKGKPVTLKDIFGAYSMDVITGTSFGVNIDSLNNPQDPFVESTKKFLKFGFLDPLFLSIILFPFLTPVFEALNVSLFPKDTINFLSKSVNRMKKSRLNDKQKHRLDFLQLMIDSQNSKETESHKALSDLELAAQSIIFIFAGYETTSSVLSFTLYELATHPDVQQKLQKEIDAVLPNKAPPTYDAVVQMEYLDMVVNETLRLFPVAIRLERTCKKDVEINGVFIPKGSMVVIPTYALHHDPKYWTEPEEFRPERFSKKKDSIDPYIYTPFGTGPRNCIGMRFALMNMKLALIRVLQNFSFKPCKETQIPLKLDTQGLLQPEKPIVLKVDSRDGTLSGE

Take `CCOC(=O)N[C@@H]1CC[C@@H]2[C@@H](C1)C[C@H]1C(=O)O[C@H](C)[C@H]1[C@H]2/C=C/c1ccc(-c2cccc(F)c2)cn1` [VORAPAXAR]: the remaining at 2 h, 10 µM turned out to be 94.1% in [1], 98.3% in [7] and 98.8% in series [8]. In addition, the Drug metabolism result in series [2] is listed as “metabolite_not_detected”; in [4], “metabolite_detected”; in series [5], “metabolite_not_detected”; in series [6] it was “metabolite_not_detected”. Also, the Vmax in series [3] was determined as 0.4 pmol/min.

On to `C[C@H]1OC(=O)[C@@H]2C[C@@H]3C[C@H](NC(=O)OCCO)CC[C@H]3[C@H](/C=C/c3ccc(-c4cccc(F)c4)cn3)[C@H]12`, for which the Drug metabolism entry in [9] is reported as “metabolite_detected”.

In the case of `CCOC(=O)N[C@@H]1CC[C@@H]2[C@@H](C1)C[C@H]1C(=O)O[C@H](C)[C@H]1[C@H]2/C=[14CH]/c1ccc(-c2cccc(F)c2)cn1`, the Drug metabolism result in series [10] is on record as “metabolite_not_detected”; in [11], “metabolite_not_detected”; in [12] it was “metabolite_detected”; in [13], “metabolite_detected”.
